Experimental data from patent publication US6225336A, “Compounds having [2.2.1] bicyclo skeleton” (Shionogi & Co., Ltd., priority 1997, dated 2001).

Legend:
[1] = test system: Hartley male guinea pig; assay: Nasal Blockage Model (intranasal pressure of OVA-sensitized guinea pigs); type: in vivo; conditions: 30 mg/kg orally 60 min before antigen exposure; intranasal pressure AUC 0-30 min vs vehicle
Procedure: Experiment Using Nasal Blockage Model
Recently, It has been paid an attention to a theory that PGD2 is one of causative substances of nasal blockage caused by allergic rhinitis, and proposed to develop an inhibitor of PGD2 biosynthesis or an antagonist to the PGD2 receptor as a drug reducing nasal blockage. Thus, as to the compounds of the present, invention. the anti-nasal blockage effect was evaluated by measuring the intranasal pressure of guinea pigs.
A 1% ovalbumin (OVA) solution was treated with an ultrasonic nebulizer to obtain an aerosol. Hartley male guinea pig was sensitized by inhaling the aerosol twice each or 10 min at one-week interval. Seven days after the sensitization, the guinea pig was exposed to an antigen to initiate the reaction. Briefly, the trachea of he guinea pig was incised under the anesthesia with pentobarbital (30 mg/kg. i.p.) and cannulas were inserted into the trachea at the pulmonary and nasal cavity sides. […] After arresting the spontaneous respiration of the guinea pig with Gallamin (2 mg/kg, i.v.), 4 ml/time of air was supplied to the snout side with an artificial respirator at the frequency of 70 times/min, and the atmospheric pressure required for the aeration was measured by using a transducer fitted at the branch. The measured pressure was used as a parameter of the nasal cavity resistance. […]

[2] = target: T1, PGD2 Receptor (Homo sapiens, UniProt Q13258); assay: Binding to PGD2 Receptor (human platelet membrane fraction, [3H]PGD2); conditions: 5 nM [3H]PGD2, pH 7.4, 4° C., 90 min, read-out: Inhibitory activity IC50
T1 construct: endogenous in cells; host or cells: washed human platelets from a healthy volunteer
T1 sequence (Q13258 1-359): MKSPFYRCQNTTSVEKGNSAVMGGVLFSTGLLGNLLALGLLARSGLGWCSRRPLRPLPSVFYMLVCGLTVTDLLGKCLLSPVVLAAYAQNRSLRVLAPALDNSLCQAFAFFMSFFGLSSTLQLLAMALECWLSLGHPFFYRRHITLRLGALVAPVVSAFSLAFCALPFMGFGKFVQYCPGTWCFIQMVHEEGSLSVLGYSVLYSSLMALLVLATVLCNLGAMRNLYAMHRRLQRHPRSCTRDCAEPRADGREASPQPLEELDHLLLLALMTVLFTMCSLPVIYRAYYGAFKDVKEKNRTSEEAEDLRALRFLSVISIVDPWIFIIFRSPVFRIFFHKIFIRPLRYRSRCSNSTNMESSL
Procedure: (1) Preparation of Human Platelet Membrane Fraction
Blood was collected using a plastic syringe containing 3.8% sodium citrate from the vein of healthy volunteers (adult male and female), then put into a plastic test tube and mixed by slow-reversion. The sample was then centrifuged at 1800 rpm. for 10 min at room temperature, and the supernatant containing PRP (platelet-rich plasma) was collected. The PRP was re-centrifuged at 2300 rpm, for 22 min at room temperature to obtain platelets. The platelets were homogenized using a homogenizer (Ultra-Turrax) followed by centrifugation 3 times at 20,000 rpm, 10 min at 4° C. to obtain a platelet membrane fraction. After protein determination, the membrane fraction was adjusted to 2 mg/ml and preserved in a refrigerator at -80° C. until using for the binding test.
(2) Binding to PGD2 Receptor.
To a binding-reaction solution (50 mM Tris/HCl, pH 7.4, 5 mM MgCl2) (0.2 ml) were added the human platelet membrane fraction (0.1 mg) and 5 nM [^3 H ]PGD2 (115 Ci/mmol), and the mixture was reacted at 4° C. for 90 min. After the reaction, the mixture was filtered through a glass fiber filter paper and washed several times with cooled physiologic saline, then the radioactivity retained on the filter paper was measured. The specific-binding ratio was calculated by subtracting the non-specific binding ratio which is the radio activity similarly measured in the presence of 10 μM PGD2 from the total binding. The inhibitory activity of each compound was expressed as the concentration required for 50% inhibition (IC50), which was determined by depicting a substitution curve by plotting the binding ratio (%) in the presence of each compound, where the binding ratio in the absence of a test compound is 100%.

[3] = target: T1, PGD2 Receptor; assay: Antagonistic Activity Against PGD2 Receptor Using Human Platelet (cAMP increased by PGD2); type: cell-based; conditions: inhibition of cAMP increase by 0.1 μM PGD2 in washed human platelets
Procedure: Experiment 2 Evaluation of Antagonistic Activity Against PGD2 Receptor Using Human Platelet
Peripheral blood was collected from a healthy volunteer using a syringe in which 1/9 volume of a citric acid/dextrose solution was previously added. The sample was subjected to centrifugation at 180 g for 10 min to obtain the supernatant (PRP: platelet rich plasma). The resultant PRP was washed 3 times with a washing buffer and the number of platelet was counted with a micro cell counter. A suspension adjusted to contain the platelets at a final concentration of 5×10^8 /ml was warmed at 37° C., then subjected to the pre-treatment with 3-isobutyl-1-methylxanthine (0.5 mM) for 5 min. To the suspension was added a test compound diluted at various concentration, and 10 minutes later, 0.1 μM PGD2 was added to induce the reaction 2 minutes later, hydrochloric acid was added to terminate the reaction. The platelet was destroyed with an ultrasonic homogenizer. After centrifugation, the cAMP in the supernatant was determined by radioimmunoassay. PGD2 receptor antagonism of a drug was evaluated as follows: the inhibition rate regarding cAMP increased by the addition of PGD2 was determined at each concentration, and the concentration of the (drug required for 50% inhibition (IC50) was calculated. The results are shown below.

[4] = target: T2, TXA2 Receptor (Homo sapiens, UniProt P21731); assay: Binding to TXA2 Receptor (human platelet membrane fraction, [3H](+)-S-145 sodium salt); conditions: 2 nM [3H](+)-S-145 sodium salt, pH 7.4, room temperature, 90 min, read-out: Inhibitory activity to TXA2 Receptor: IC50
T2 construct: The human platelet fraction was prepared in accordance with Experiment 1 (1); from tissue; host or cells: human platelets from blood of healthy volunteers (membrane fraction)
T2 sequence (P21731 1-343): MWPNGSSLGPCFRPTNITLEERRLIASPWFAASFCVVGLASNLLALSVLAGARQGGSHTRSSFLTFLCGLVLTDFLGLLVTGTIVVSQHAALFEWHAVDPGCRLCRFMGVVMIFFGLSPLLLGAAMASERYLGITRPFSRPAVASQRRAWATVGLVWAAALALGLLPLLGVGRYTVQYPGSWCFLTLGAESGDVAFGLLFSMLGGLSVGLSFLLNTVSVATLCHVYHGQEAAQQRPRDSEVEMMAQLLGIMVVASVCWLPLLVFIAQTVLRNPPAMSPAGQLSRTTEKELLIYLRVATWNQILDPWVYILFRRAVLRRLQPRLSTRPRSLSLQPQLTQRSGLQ
Procedure: (I) Preparation of Human Platelet Membrane Fraction
The human platelet fraction was prepared in accordance with Experiment 1 (1).
(2) Binding to TXA2 Receptor
To a binding-reaction solution (50 mM Tris/HCl, pH 7.4. 10 mM MgCl2) (0.2 ml) were added the human platelet membrane fraction (0.05 mg) and 2 nM Sodium [^3 H](+)-(5Z)-7-[3-endo-[(phenylsulfonyl)aminol]bicyclo[2.2. 1]hept-2-exo-iy]heptenoate (Japanese Patent Publication (Kokoku) No.79060/1993, hereinafter referred to as (+)-S-145 sodium salt) (26.4 Ci/mmol), and the mixture was reacted at room temperature for 90 min. After the reaction, the resultant mixture was filtered through a glass fiber filter paper and washed several times with cooled physiological saline, then the radioactivity retained on the filter paper was measured. The specific-binding ratio was calculated by subtracting the non-specific binding ratio (the radio activity similarly determined in the presence of 10 μM (+)-S-145 sodium salt) from the total binding. The inhibitory activity of each compound was expressed as the concentration required for 50% inhibition (IC50), which was determined by depicting a substitution curve by plotting the binding ratio (%) in the presence of each compound, where the binding ratio in the absence of a test compound is 100%.

With `O=C(O)CCC/C=C\C[C@H]1[C@@H]2CC[C@@H](C2)[C@@H]1NC(=O)c1csc2ccc(O)cc12` [Compd. 1, (5Z)-7-{(1R, 2S, 3S, 4S)-3-(5-Hydroxybenzo[b]thiophen-3-carbonylamino)-bicyclo[2.2. 1]hept-2-yl}-5-heptenoic acid] the “Inhibitory Rate (%)” value [1] was 74%, the IC50 [2] was 9.6 nM and the IC50 [3] was 3.9 nM.
`O=C(O)CCC/C=C\C[C@H]1[C@@H]2CC[C@@H](C2)[C@@H]1NC(=O)c1cccc2ccsc12` [Compd. 3, (5Z)-7-{(1R, 2S, 3S, 4S)-3-(Benzo[b]thiophen-7-carbonylamino)-bicyclo[2.2. 1]hept-2-yl}-5-heptenoic acid] showed an IC50 [2] of 87 nM and an IC50 [3] of 22 nM.
`O=C(O)CCC/C=C\C[C@H]1[C@@H]2CC[C@@H](C2)[C@@H]1NC(=O)c1ccsc1` [Compd. 2, (5Z)-7-{(1R, 2S, 3S, 4S)-3-(Thiophen-3-carbonylamino)-bicyclo[2.2.1]hept-2-yl}-5-heptenoic acid] gave an IC50 [2] of 31 nM and an IC50 [3] of 360 nM.
For `O=C(O)CCC/C=C\C[C@@H]1[C@H]2CC[C@H](C2)[C@H]1NC(=O)c1csc2ccc(O)cc12` [Compd. 18, (5Z)-7-{(1S, 2R, 3R, 4R)-3-(5-Hydroxybenzo[b]thiophen-3-carbonylamino)-bicyclo[2.2. 1]hept-2-yl}-5-heptenoic acid], the IC50 [4] was 1800 nM, the IC50 [2] was 5.5 nM and the IC50 [3] was greater than 1000 nM.
Molecule `O=C(O)CCC/C=C\C[C@H]1[C@@H]2CC[C@@H](C2)[C@@H]1NC(=O)c1csc2ccccc12` [Compd. 4, (5Z)-7-{(1R, 2S, 3S, 4S)-3-(Benzo[b]thiophen-3-carbonylamino)-bicyclo[2.2. 1]hept-2-yl}-5-heptenoic acid] has an IC50 [4] of 3800 nM, an IC50 [2] of 8.2 nM and an IC50 [3] of 41 nM.
With `O=C(O)CCC/C=C\C[C@H]1[C@@H]2CC[C@@H](C2)[C@@H]1NC(=O)c1csc2cc(O)ccc12` [Compd. 6] the IC50 [2] was 180 nM and the IC50 [3] was 8.2 nM.
For `O=C(O)CCC/C=C\C[C@H]1[C@@H]2CC[C@@H](C2)[C@@H]1NC(=O)c1csc2ccc(F)cc12` [Compd. 5, (5Z)-7-{(1R, 2S, 3S, 4S)-3-(5-Fluorobenzo[b]thiophen-3-carbonylamino)-bicyclo[2.2. 1]hept-2-yl}-5-heptenoic acid], the IC50 [2] was 57 nM and the IC50 [3] was 34 nM.
